# From patent publication US8039481B2, “Tetrahydrofuran derivatives for use as inhibitors of matrix metalloproteinases” (Sanofi-Aventis, priority 2005, dated 2011)
# What was measured:
# Format in all cases: biochemical
# [1] = biological target: T1, catalytic domain of human collagenase-3 (MMP-13) (Homo sapiens, UniProt P45452); assay: Enzymatic activity of the catalytic domain of human collagenase-3 (MMP-13), fluorogenic substrate
# T1 construct: Determination of the Enzymatic Activity of the Catalytic Domain of Human Collagenase-3 (MMP-13); purchased INVITEK, Berlin 30 100 803
# Description: Determination of the Enzymatic Activity of the Catalytic Domain of Human Collagenase-3 (MMP-13)
# (§1) Activation of the proenzyme: 2 parts by volume of proenzyme were incubated with 1 part by volume of APMA solution at 37° C. for 1.5 hours. The APMA solution was prepared from a 10 mmol/l p-aminophenylmercuric acetate solution in 0.1 mmol/l NaOH by dilution with 3 parts by volume of Tris/HCl buffer pH 7.5 (see below). The pH was adjusted to between 7.0 and 7.5 by adding 1 mmol/l HCl. After activation of the enzyme it was diluted with the Tris/HCl buffer to a concentration of 1.67 μg/ml.
# (§2) The enzymic activity was measured by incubating 10 μl of enzyme solution with 10 μl of a 3% strength (v/v) buffered dimethyl sulfoxide solution (reaction 1) for 15 minutes. The enzyme inhibitor activity was measured by incubating 10 μl of enzyme solution with 10 μl of a 3% strength (v/v) buffered dimethyl sulfoxide solution which contained the enzyme inhibitor (reaction 2).
# The enzymic reaction both in the case of reaction 1 and in the case of reaction 2 was followed after addition of 10 μl of a 3% strength (v/v) aqueous dimethyl sulfoxide solution which contained 0.075 mmol/l of the substrate by fluorescence spectroscopy (328 nm (extinction)/393 nm (emission)).
# (§3) The enzymic activity has been presented as increase in extinction/minute. The effect of the inhibitor was calculated as percentage inhibition by the following formula: % inhibition=100−[(increase in extinction/minute in reaction 2)/(increase in extinction/minute in reaction 1)×100].
# (§4) The IC50, which is the concentration of inhibitor which is necessary for 50% inhibition of the enzymic activity, was determined graphically by plotting the percentage inhibitions at various inhibitor concentrations.
# (§5) The buffer solution contained 0.05% Brij (Sigma, Deisenhofen, Germany) and 0.1 mol/l Tris/HCl, 0.1 mol/l NaCl, 0.01 mol/l CaCl2 (pH=7.5). The enzyme solution contained 1.67 μg/ml of the enzyme domain. The substrate solution contained 0.075 mmol/l of the fluorogenic substrate (7-methoxycoumarin-4-yl)acetyl-Pro-Leu-Gly-Leu-3-(2′,4′-dinitrophenyl)-L-2,3-diaminopropionyl-Ala-Arg-NH2 (Bachem, Heidelberg, Germany).
# [2] = biological target: catalytic domain of human gelatinase-A (MMP-9) (Homo sapiens, UniProt P14780); assay: Enzymatic activity of the catalytic domain of human gelatinase-A (MMP-9), fluorogenic substrate
# Description: Determination of the Enzymatic Activity of the Catalytic Domain of Human Gelatinase-A (MMP-9)
# Activation of the proenzyme:
# as §1, with “2” for “Activation of the proenzyme: 2”, “4” for “1.5”, “4.2 mU/ml.” for “1.67 μg/ml.”
# as §2
# The enzymic reaction both in the case of reaction 1 and in the case of reaction 2 was followed after addition of 10 μl of a 3% strength (v/v) aqueous dimethyl sulfoxide solution which contained 0.15 mmol/l of the substrate by fluorescence spectroscopy (328 nm (extinction)/393 nm (emission)).
# The enzymic activity has been presented as increase in extinction/minute.
# The effect of the inhibitor was calculated as percentage inhibition by the following formula: % inhibition=100−[(increase in extinction/minute in reaction 2)/(increase in extinction/minute in reaction 1)×100].
# as §4
# as §5, with “4.2 mU/ml” for “1.67 μg/ml”, “0.15” for “0.075”
# [3] = biological target: catalytic domain of human gelatinase-A (MMP-2) (Homo sapiens, UniProt P08253); assay: Enzymatic activity of the catalytic domain of human gelatinase-A (MMP-2), fluorogenic substrate
# Description: Determination of the Enzymatic Activity of the Catalytic Domain of Human Gelatinase-A (MMP-2)
# as §1, with “0.5” for “1.5”, “0.83” for “1.67”
# as §2
# The enzymic reaction both in the case of reaction 1 and in the case of reaction 2 was followed after addition of 10 μl of a 3% strength (v/v) aqueous dimethyl sulfoxide solution which contained 0.3 mmol/l of the substrate by fluorescence spectroscopy (328 nm (extinction)/393 nm (emission)).
# as §3, §4
# as §5, with “0.83” for “1.67”, “0.3” for “0.075”
# Sequence of catalytic domain of human gelatinase-A (MMP-2) (P08253 110-465 limits assumed): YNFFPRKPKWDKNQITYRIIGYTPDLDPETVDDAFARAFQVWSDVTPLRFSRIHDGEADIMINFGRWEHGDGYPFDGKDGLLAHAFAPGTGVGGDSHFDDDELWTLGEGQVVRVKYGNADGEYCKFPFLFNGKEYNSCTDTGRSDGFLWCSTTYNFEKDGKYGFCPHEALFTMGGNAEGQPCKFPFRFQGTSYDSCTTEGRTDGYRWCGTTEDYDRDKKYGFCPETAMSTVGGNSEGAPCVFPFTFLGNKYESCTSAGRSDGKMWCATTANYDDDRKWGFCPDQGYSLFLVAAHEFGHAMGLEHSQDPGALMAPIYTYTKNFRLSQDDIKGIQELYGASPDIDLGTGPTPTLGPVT
# Sequence of catalytic domain of human gelatinase-A (MMP-9) (P14780 107-444 limits assumed): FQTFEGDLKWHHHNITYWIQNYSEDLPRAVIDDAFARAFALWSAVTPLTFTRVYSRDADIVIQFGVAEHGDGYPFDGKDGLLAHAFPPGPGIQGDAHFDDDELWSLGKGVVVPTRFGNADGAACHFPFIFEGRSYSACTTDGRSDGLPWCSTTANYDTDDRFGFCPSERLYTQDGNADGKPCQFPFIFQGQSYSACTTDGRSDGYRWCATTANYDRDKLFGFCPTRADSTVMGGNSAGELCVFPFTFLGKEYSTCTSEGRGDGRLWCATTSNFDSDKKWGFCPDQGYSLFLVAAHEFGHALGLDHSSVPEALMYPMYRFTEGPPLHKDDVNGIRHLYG
Structure (SMILES),IC50 [1],IC50 [2],IC50 [3]
O=C(NO)[C@H]1[C@H]2CCO[C@H]2CCN1S(=O)(=O)c1ccc(Oc2ccc(F)cc2)cc1 [Example 12],0.7 nM,1.3 nM,0.8 nM
O=C(NO)[C@H]1[C@H]2CCO[C@H]2CCN1S(=O)(=O)c1ccc(-c2ccc(Cl)cc2)cc1 [Example 8],1 nM,1.5 nM,0.8 nM
"O=C(O)C1C2CCOC2CCN1S(=O)(=O)c1ccc(-c2ccc(Cl)cc2)cc1 (stereo not drawn) [Example 6, 5-(4′-chlorobiphenyl-4-sulfonyl)octahydrofuro[3,2-c]pyridine-4-carboxylic acid]",290 nM,2200 nM,38 nM
N#Cc1ccc(Oc2ccc(S(=O)(=O)N3CC[C@@H]4OCC[C@@H]4[C@@H]3C(=O)NO)cc2)cc1 [Example 21],1 nM,8 nM,1 nM
"O=C(NO)C1C2CCOC2CCN1S(=O)(=O)c1ccc(Oc2ccc(Cl)cc2)cc1 (stereo not drawn) [Example 18, 5-[4-(4-chlorophenoxy)benzenesulfonyl]octahydrofuro[3,2-c]pyridine-4-(N-hydroxy)-carboxamide]",1 nM,2 nM,2 nM

# The next lines start with the values.
IC50 [1],IC50 [2],IC50 [3],Structure (SMILES)
520 nM,2500 nM,440 nM,"O=C(O)C1C2CCOC2CCN1S(=O)(=O)c1ccc(Oc2ccc(F)cc2)cc1 (stereo not drawn) [Example 10, 5-[4-(4-fluorophenoxy)benzenesulfonyl]octahydrofuro[3,2-c]pyridine-4-carboxylic acid]"
1 nM,5 nM,1 nM,CS(=O)(=O)c1ccc(Oc2ccc(S(=O)(=O)N3CC[C@@H]4OCC[C@@H]4[C@@H]3C(=O)NO)cc2)cc1 [Example 23]
1.8 nM,2.4 nM,1.7 nM,"O=C(NO)C1C2CCOC2CCN1S(=O)(=O)c1ccc(-c2ccc(Cl)cc2)cc1 (stereo not drawn) [Example 7, 5-(4′-chlorobiphenyl-4-sulfonyl)octahydrofuro[3,2-c]pyridine-4-(N-hydroxy)-carboxamide]"
63 nM,150 nM,47 nM,O=C(NO)[C@@H]1[C@@H]2CCO[C@@H]2CCN1S(=O)(=O)c1ccc(Oc2ccc(F)cc2)cc1 [Example 13]
58 nM,120 nM,71 nM,O=C(NO)[C@@H]1[C@@H]2CCO[C@@H]2CCN1S(=O)(=O)c1ccc(-c2ccc(Cl)cc2)cc1 [Example 9]
2 nM,3 nM,2 nM,"O=C(NO)C1C2CCOC2CCN1S(=O)(=O)c1ccc(Oc2ccc(F)cc2)cc1 (stereo not drawn) [Example 11, 5-[4-(4-fluorophenoxy)benzenesulfonyl]octahydrofuro[3,2-c]pyridine-4-(N-hydroxy)-carboxamide]"
